SMILES strings stand for the structures.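 Protocol summary: plate cells (96-well), add compound at 5 concentrations, incubate 48 h, interpolate endpoints linearly. GI50: concentration for 50% inhibition of growth.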 Calls of active or inactive are those of the source. Cut-off read from the data, not from the text of the source: active = GI50 up to about 1.1 µM and inactive = higher. Where only a bound is given, the exact number is not on record here.

Test systems include Hs-578T; Malme-3M; HCT-15; U-251; LOX IMVI; MCF7; OVCAR-4; OVCAR-5; SNB-19; UACC-257; RXF 393; SK-MEL-5; MDA-MB-231; SK-MEL-2; SF-539; MDA-N; HCT-116; MOLT-4; OVCAR-8; HOP-62.
What all share (assay): growth of human tumour cells (NCI), 48 h

As for `NC(C(F)(F)F)(C(F)(F)F)P(=O)(c1ccccc1)c1ccccc1`, the GI50 in the test with Hs-578T is > 100 µM (inactive); with Malme-3M it was > 100 µM (inactive); in the test on HCT-15 it was above 100 µM; in the test on U-251, > 100 µM (inactive); with LOX IMVI it was > 100 µM (inactive); in the test on MCF7, > 100 µM (inactive). For the same compound, the GI50 in the test on OVCAR-4, in the test with OVCAR-5, with SNB-19, with UACC-257, with RXF 393 and in the test with SK-MEL-5 was > 100 µM (inactive) throughout. Further, the GI50 in the test with MDA-MB-231, with SK-MEL-2, with SF-539, in the test on MDA-N, with HCT-116 and in the test with MOLT-4 was > 100 µM (inactive) throughout. The GI50 with OVCAR-8 and with HOP-62 was > 100 µM (inactive) each time.

Take `COc1ccc2c(c1)C1Oc3ccccc3CC1CO2` (stereo not given): the GI50 is 34 µM (inactive) in the test on Hs-578T; 54 µM (inactive) in the test with Malme-3M; 34.1 µM with HCT-15; 91.8 µM (inactive) in the test with U-251; 47.2 µM (inactive) in the test with LOX IMVI; 78.2 µM (inactive) with MCF7. Moreover, the GI50 in the test on OVCAR-4 is 43.9 µM (inactive); with OVCAR-5 it was > 100 µM (inactive); in the test on SNB-19, > 100 µM (inactive); in the test on UACC-257 it was 35.9 µM (inactive); in the test with RXF 393, 24.9 µM (inactive); in the test on SK-MEL-5, 32.6 µM (inactive). Moreover, the GI50 in the test with MDA-MB-231 is 16.8 µM (inactive); in the test on SK-MEL-2, 21.5 µM (inactive); in the test with SF-539, > 100 µM (inactive); in the test on MDA-N, 37.6 µM (inactive); with HCT-116 it was 44.7 µM (inactive); in the test with MOLT-4, 21.5 µM (inactive). The figures for the GI50 with OVCAR-8 and with HOP-62 were 83.9 µM (inactive) and > 100 µM (inactive), respectively.

For `Nc1cccc(C2CCCc3c2[nH]c2ccccc32)c1` (stereo not given), the GI50 in the test with Hs-578T was 16 µM (inactive); in the test on Malme-3M, 18.1 µM (inactive); with HCT-15, 8.28 µM; with U-251, 14.6 µM (inactive); in the test on LOX IMVI, 12.4 µM (inactive); in the test on MCF7, 21.8 µM (inactive). The GI50 in the test on OVCAR-4 was 25.5 µM (inactive); with OVCAR-5 it was 16.3 µM (inactive); in the test on SNB-19, 12 µM (inactive); in the test with UACC-257, 23.9 µM (inactive); with RXF 393 it was 15.3 µM (inactive); with SK-MEL-5, 17.4 µM (inactive). For the same compound, the GI50 in the test on MDA-MB-231 is 15.8 µM (inactive); with SK-MEL-2, 17.5 µM (inactive); in the test on SF-539, 20.3 µM (inactive); in the test with MDA-N it was 17.5 µM (inactive); in the test on HCT-116, 13.4 µM (inactive); in the test with MOLT-4, 20.6 µM (inactive). The figures for the GI50 in the test on OVCAR-8 and in the test on HOP-62 were 17.7 µM (inactive) and 30.5 µM (inactive), respectively.

`[N-]=[N+]=Nc1ccc2c(c1)Sc1ccccc1N2CCCCN1CCN(C(=O)CCNC(=O)Cc2ccc(C(=O)c3ccccc3)cc2)CC1`: the GI50 is 17.7 µM (inactive) in the test with Hs-578T; 5.2 µM (inactive) with Malme-3M; 2.64 µM in the test on HCT-15; 4.23 µM (inactive) in the test on U-251; 2.23 µM (inactive) in the test on LOX IMVI; 2.33 µM (inactive) in the test with MCF7. The GI50 is 3.48 µM (inactive) in the test on OVCAR-4; 6.53 µM (inactive) in the test with OVCAR-5; 8.17 µM (inactive) in the test on SNB-19; 4.05 µM (inactive) with UACC-257; 10.9 µM (inactive) with RXF 393; 2.11 µM (inactive) with SK-MEL-5. Also, the GI50 in the test on MDA-MB-231 is 4.74 µM (inactive); with SK-MEL-2, 4.29 µM (inactive); in the test on SF-539, 6.27 µM (inactive); in the test with MDA-N, 3.75 µM (inactive); in the test on HCT-116, 3.54 µM (inactive); in the test on MOLT-4, 1.54 µM (inactive). For the same compound, the GI50 in the test with OVCAR-8 was 7.03 µM (inactive); in the test on HOP-62, 8.45 µM (inactive).

With `Nc1nc(O)nc2snnc12`, the GI50 is > 54.8 µM (inactive) in the test with Hs-578T; 8.65 µM (inactive) with Malme-3M; above 89.7 µM in the test on HCT-15; 25.1 µM (inactive) in the test with U-251; 2.92 µM (inactive) in the test with LOX IMVI; > 100 µM (inactive) in the test on MCF7. Moreover, the GI50 with OVCAR-4 was > 53.7 µM (inactive); in the test with OVCAR-5, > 100 µM (inactive); in the test on SNB-19 it was > 87.9 µM (inactive); with UACC-257, 24.7 µM (inactive); with RXF 393, 4.66 µM (inactive); in the test on SK-MEL-5, > 74.3 µM (inactive). Also, the GI50 was 7.13 µM (inactive) in the test on MDA-MB-231; 1.75 µM (inactive) in the test with SK-MEL-2; 15.9 µM (inactive) with SF-539; 8.28 µM (inactive) in the test on MDA-N; 7.89 µM (inactive) with HCT-116; 7.6 µM (inactive) with MOLT-4. Moreover, the GI50 is 5.71 µM (inactive) in the test with OVCAR-8 and 8.07 µM (inactive) in the test with HOP-62.

Take `COc1cc2c(cc1OC)C(=O)/C(=C/c1ccc(Cl)cc1)CC2`: the GI50 with Hs-578T is > 10 µM (inactive); with Malme-3M, > 10 µM (inactive); in the test with HCT-15, above 10 µM; in the test on U-251, > 10 µM (inactive); in the test on LOX IMVI it was > 10 µM (inactive); with MCF7 it was > 10 µM (inactive). Further, the GI50 in the test on OVCAR-4, in the test with OVCAR-5, with SNB-19, in the test on UACC-257, in the test on RXF 393 and in the test with SK-MEL-5 was > 10 µM (inactive) throughout. In addition, the GI50 in the test on MDA-MB-231, in the test on SK-MEL-2, with SF-539, with MDA-N, in the test with HCT-116 and with MOLT-4 was > 10 µM (inactive) in each case. The GI50 in the test on OVCAR-8 and in the test with HOP-62 was > 10 µM (inactive) throughout.

As to `CCN1/C(=C/c2ccc3ccccc3[n+]2CC)C=Cc2ccccc21`, the GI50 with Hs-578T is 1.01 µM (active); with Malme-3M it was 1.39 µM (inactive); in the test on HCT-15, 4.89 µM; with U-251, 0.131 µM (active); in the test on LOX IMVI, 0.561 µM (active); with MCF7, 0.367 µM (active). Also, the GI50 was 0.617 µM (active) in the test with OVCAR-4; 5.37 µM (inactive) in the test with OVCAR-5; 0.541 µM (active) in the test with SNB-19; 0.18 µM (active) with UACC-257; 2.12 µM (inactive) in the test on RXF 393; 0.329 µM (active) in the test with SK-MEL-5. For the same compound, the GI50 in the test on MDA-MB-231 is 1.77 µM (inactive); in the test with SK-MEL-2, 0.687 µM (active); in the test on SF-539, 1.89 µM (inactive); with MDA-N it was 0.39 µM (active); in the test on HCT-116 it was 0.509 µM (active); in the test on MOLT-4 it was 0.641 µM (active). The figures for the GI50 in the test with OVCAR-8 and in the test with HOP-62 were 0.555 µM (active) and 0.805 µM (active), respectively.

The values above are taken from ChEMBL document CHEMBL1201862, “PubChem BioAssay data set” (2004).
